Source: PMC6471485, “Selective Inhibitors of a Human Prolyl Hydroxylase (OGFOD1) Involved in Ribosomal Decoding” (Chemistry (Weinheim an Der Bergstrasse, Germany), 2019)
“Also recorded” adds a separate entry of the source.

What was measured:
[1] = tested on: MDR1-MDCK; assay: MDR1-MDCK in vitro permeability assay (Cyprotex); assay type: in vitro ADME; details: for cell permeability, in words: MDR1-MDCK; for predicted blood-brain barrier permeability, in words: prediction from MDR1-MDCK assay
Description: (§1) supplemented with 80 µM Zn(II), 70 µM of inhibitor, all in 50 mM Tris-d11, pH 7.5, 10 % D2O, […]
(§2) Cell Culture and Immunoblotting
(§3) HeLa cells were cultured in DMEM media supplemented with 10 % fetal bovine serum, 4 mM L-glutamine, 100 U/mL penicillin, and 100 µg/mL streptomycin. Cells were treated with the indicated compounds, prepared in 1% DMSO, for 5 h. Following a PBS buffer rinse, cells were lysed in urea/SDS buffer supplemented with 1 mM dithiothreitol. Cell extracts were analyzed by SDS-PAGE, electroblotted onto PVDF membranes (Millipore) and probed with anti-HIF-1α antibody (clone 54, BD Transduction Laboratories) at 1:1000 dilution for 1 h at room temperature. The HRP-conjugated secondary antibody was then applied at room temperature for 1 h. Target proteins were detected with SuperSignal Chemiluminescent […]
(§4) ADMET in vitro Predictors
(§5) S9 liver microsome stability assays and MDCK-MDR1 efflux assays were carried out for CCT3 and CCT4 by Cyprotex (UK). Additional details are provided later in the Supporting […]
(§6) The solubility and metabolic stability of CCT3 and CCT4 was preliminarily evaluated using a S9 liver microsome assay (Cyprotex, UK). According to the assay, CCT3 and CCT4 had […]
(§7) respectively, and are thus classified as having low clearance (< 8.6 µL/min/mg protein).
(§8) The cell permeability of CCT3 and CCT4 were evaluated using an MDR1-MDCK in vitro […]
(§9) able to penetrate the blood-brain barrier. The permeability coefficients were determined to be

[2] = MDR1-MDCK in vitro permeability assay (Cyprotex); assay type: in vitro ADME; details: dog; MDR1-MDCK; read-out: permeability coefficient
Description: as §1, §2, §3, §4, §5, §6, §7, §8, §9

[3] = target: JARID1C (Homo sapiens, UniProt P41229); assay: JARID1C AlphaScreen-based assay; assay type: biochemical
Sequence of JARID1C (P41229 whole entry): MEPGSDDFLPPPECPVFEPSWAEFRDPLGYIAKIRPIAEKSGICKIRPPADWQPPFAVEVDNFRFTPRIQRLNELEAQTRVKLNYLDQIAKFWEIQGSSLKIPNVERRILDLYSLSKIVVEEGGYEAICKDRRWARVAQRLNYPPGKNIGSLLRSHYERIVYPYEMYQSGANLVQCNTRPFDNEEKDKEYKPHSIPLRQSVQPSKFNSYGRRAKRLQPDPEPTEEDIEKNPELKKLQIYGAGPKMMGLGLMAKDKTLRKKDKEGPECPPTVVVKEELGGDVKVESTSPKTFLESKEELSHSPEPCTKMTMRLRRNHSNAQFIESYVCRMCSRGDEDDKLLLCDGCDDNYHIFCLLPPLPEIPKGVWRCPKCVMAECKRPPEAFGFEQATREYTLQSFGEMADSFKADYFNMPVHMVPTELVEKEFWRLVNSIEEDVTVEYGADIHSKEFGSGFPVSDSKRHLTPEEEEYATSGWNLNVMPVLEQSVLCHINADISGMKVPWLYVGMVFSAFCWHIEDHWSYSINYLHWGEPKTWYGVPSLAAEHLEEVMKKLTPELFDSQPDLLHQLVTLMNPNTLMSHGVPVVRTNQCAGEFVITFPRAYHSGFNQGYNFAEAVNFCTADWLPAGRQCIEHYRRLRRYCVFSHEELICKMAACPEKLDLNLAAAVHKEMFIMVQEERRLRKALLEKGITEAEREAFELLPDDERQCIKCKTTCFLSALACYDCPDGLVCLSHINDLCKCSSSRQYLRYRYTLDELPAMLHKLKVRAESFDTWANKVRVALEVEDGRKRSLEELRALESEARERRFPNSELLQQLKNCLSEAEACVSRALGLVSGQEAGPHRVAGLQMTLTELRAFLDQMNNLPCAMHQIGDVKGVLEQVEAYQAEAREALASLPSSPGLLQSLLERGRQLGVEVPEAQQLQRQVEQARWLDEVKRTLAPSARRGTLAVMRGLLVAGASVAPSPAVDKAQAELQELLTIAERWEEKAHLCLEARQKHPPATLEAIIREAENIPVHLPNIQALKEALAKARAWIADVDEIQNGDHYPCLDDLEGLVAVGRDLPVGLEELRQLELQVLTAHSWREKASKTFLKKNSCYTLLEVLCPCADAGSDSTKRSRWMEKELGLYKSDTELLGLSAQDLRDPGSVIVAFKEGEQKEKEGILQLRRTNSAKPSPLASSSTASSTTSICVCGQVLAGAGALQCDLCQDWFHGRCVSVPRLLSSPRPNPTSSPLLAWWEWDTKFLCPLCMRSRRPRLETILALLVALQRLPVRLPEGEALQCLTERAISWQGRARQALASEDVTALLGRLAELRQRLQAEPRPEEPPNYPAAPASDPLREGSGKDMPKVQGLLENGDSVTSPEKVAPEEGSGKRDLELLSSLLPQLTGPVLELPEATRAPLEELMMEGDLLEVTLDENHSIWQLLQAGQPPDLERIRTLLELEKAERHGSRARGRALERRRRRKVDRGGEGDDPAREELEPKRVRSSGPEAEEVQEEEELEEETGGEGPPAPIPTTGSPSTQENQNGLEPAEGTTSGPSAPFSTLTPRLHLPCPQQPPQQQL
Description: (§10) reactions were quenched after 4 min. KDM4A inhibition was tested as described previously using a formaldehyde dehydrogenase (FDH) assay.[9] JARID1B and JARID1C inhibition was tested as described previously using reported AlphaScreen-based assays.[10] MINA531-464 and NO66116-641 were cloned into pFB-LIC-Bse, and the N-terminal His-tagged proteins were produced in Sf9 insect cells. The MINA53 peptide substrate Rpl27a […]
(§11) (Gly31 – Pro49 […]) and the NO66 peptide substrate Rpl8
(§12) (Asn205 – Thr224 […]) were synthesized by Peptide Protein
Research Ltd (Fareham, Hampshire, UK) to >95% purity. IC50 determinations were performed in 384-well polypropylene plates (Greiner Bio One, Cat Number 781096), and compound dispenses were performed using an ECHO 550 acoustic dispenser (Labcyte, Sunnyvale, CA).
NO66 (diluted to 375 nM in 50 mM MES pH 7.0, 150 mM NaCl) and MINA53 (diluted to 187.5 nM in 50 mM HEPES pH 7.5, 50 mM NaCl) were dispensed (40 µL) into 384-well compound plates using a multidrop combi reagent dispenser (Thermo Scientific, Code 5840300) with a small tube plastic tip dispensing cassette (Thermo Scientific, Code 24073290).
NO66 and MINA53 were pre-incubated with compound for 15 minutes, and the enzyme reaction initiated by dispensing 10 µL of substrate solution [250 µM (NH4)2Fe(SO4)2, 500 µM sodium ascorbate, 25 µM 2OG, 25 µM peptide] in optimized enzyme buffer. […]

[4] = target: FIH (Homo sapiens, UniProt Q9NWT6); assay: FIH assay, MALDI-TOF MS detection of hydroxylation; assay type: biochemical
Sequence of FIH (Q9NWT6 whole entry): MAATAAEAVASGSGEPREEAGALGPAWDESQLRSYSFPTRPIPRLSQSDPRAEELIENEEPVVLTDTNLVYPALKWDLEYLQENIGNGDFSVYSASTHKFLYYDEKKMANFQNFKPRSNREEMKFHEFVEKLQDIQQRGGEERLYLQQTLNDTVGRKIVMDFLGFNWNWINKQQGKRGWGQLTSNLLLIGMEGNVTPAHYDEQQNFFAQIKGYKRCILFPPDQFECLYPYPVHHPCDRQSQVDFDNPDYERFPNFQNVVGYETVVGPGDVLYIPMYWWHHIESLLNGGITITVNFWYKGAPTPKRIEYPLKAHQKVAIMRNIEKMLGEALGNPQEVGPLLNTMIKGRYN

[5] = target: T1, MINA53 (Homo sapiens, UniProt Q8IUF8); assay: MINA53 IC50 determination, RapidFire MS; assay type: biochemical
T1 construct: 1-464 and NO66116-641 were cloned into pFB-LIC-Bse; His (N); made in house; host or cells: Sf9 insect cells
T1 sequence (Q8IUF8 1-464 limits assumed): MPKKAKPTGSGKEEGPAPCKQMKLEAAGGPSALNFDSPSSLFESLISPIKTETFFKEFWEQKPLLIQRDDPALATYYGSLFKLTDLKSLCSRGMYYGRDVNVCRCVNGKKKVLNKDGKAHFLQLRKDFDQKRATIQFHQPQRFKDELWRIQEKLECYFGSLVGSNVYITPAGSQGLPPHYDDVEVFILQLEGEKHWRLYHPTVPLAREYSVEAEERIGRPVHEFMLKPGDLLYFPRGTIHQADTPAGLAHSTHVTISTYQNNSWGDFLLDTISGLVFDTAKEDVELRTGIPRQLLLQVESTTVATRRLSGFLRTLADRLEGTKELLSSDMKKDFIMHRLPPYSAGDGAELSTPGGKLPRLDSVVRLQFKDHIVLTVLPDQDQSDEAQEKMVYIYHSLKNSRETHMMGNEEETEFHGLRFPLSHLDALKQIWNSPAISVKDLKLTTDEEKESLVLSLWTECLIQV
Description: as §10, §11, §12
Research Ltd (Fareham, Hampshire, UK) to >95% purity. IC50 determinations were performed in 384-well polypropylene plates (Greiner Bio One, Cat Number 781096), and compound dispenses were performed using an ECHO 550 acoustic dispenser (Labcyte, Sunnyvale, CA). […]
RapidFire integrator software (Agilent). Percent conversion was calculated in Excel, and IC50 curves were generated using Prism v. […]
Assays consisted of enzyme (2 µM), inhibitor (200 µM), MnCl2 (50 µM), and SYPRO Orange (1:5000 dilution), all prepared in 50 mM HEPES, pH 7.5. […] An Opticon thermal cycler (MJ Research Inc) was used to control temperature and measure fluorescence. […]
CPMG Binding Experiments: Binding of the inhibitors to the proteins was monitored using Carr-Purcell-Meiboom-Gill (CPMG)-edited 1H spectra. […]

Cn1c(O)c(C(=O)CCc2cccs2)c(=O)n(C)c1=O [compound 42]
cell permeability, in words [1]: good cell permeability properties
predicted blood-brain barrier permeability, in words ([1]; listed as CCT4): brain uptake is likely; also recorded: predicted to be permeable to the blood brain barrier
Papp [2]: 62.7 ×10⁻⁶ cm/s
IC50 [3]: > 100 µM
melting point: 91 °C
IC50 [4]: > 100 µM
IC50 [5]: > 100 µM

Cn1c(O)c(C(=O)CCc2ccccc2)c(=O)n(C)c1=O [compound 26]
cell permeability, in words [1]: good cell permeability properties
predicted blood-brain barrier permeability, in words ([1]; listed as CCT3): brain uptake is likely; also recorded: predicted to be permeable to the blood brain barrier
Papp [2]: 58.5 ×10⁻⁶ cm/s
IC50 [3]: > 100 µM
IC50 [4]: > 100 µM
IC50 [5]: > 100 µM
